The values below come from ChEMBL document CHEMBL1201862, “PubChem BioAssay data set” (2004).

Among the test systems are 786-0; DU-145; HL-60; HT-29; NCI-H226; NCI-H460; NCI-H522; OVCAR-3; OVCAR-4; OVCAR-5; OVCAR-8; SF-268; SR; U-251; UO-31; HCC 2998; HCT-15; M14; UACC-62.
Assay in all cases: inhibition of tumour cell growth, NCI panel, 48 h

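Method: 48-hour compound exposure of cells in 96-well plates, five concentrations, linear interpolation of endpoints. At the GI50, growth is halved.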 Active and inactive are the calls of the source. No stated cut-off is given here; in the data, active = GI50 up to about 1.1 µM and inactive = higher.

With `CC(=O)OCC1OC(c2nnc(C)o2)=CC(OC(C)=O)C1OC(C)=O` (stereo not given), the GI50 with 786-0, with DU-145, with HL-60, with HT-29, in the experiment with NCI-H226 and in the experiment with NCI-H460 was > 100 µM (inactive) in each case. Further, the GI50 in the experiment with NCI-H522, in the experiment with OVCAR-3, in the experiment on OVCAR-4, in the experiment with OVCAR-5, in the experiment on OVCAR-8 and in the experiment on SF-268 was > 100 µM (inactive) throughout. The GI50 in the experiment on SR, with U-251 and in the experiment with UO-31 was > 100 µM (inactive) in each case.
Consider `O=C(O)CC12CC3CC(CC(O)(C3)C1)C2`, for which the GI50 with 786-0 was > 100 µM (inactive); in the experiment with DU-145 it was > 100 µM (inactive); in the experiment with HCC 2998 it was > 100 µM (inactive); in the experiment on HCT-15, more than 100 µM; with HT-29, > 100 µM (inactive); in the experiment with M14, > 100 µM (inactive). Also, the GI50 with NCI-H226 is > 100 µM (inactive); in the experiment with NCI-H460 it was > 100 µM (inactive); with NCI-H522 it was 27.7 µM (inactive); in the experiment with OVCAR-3, 3.14 µM (inactive); in the experiment on OVCAR-4 it was > 100 µM (inactive); in the experiment on OVCAR-5 it was > 100 µM (inactive). In addition, the GI50 is > 100 µM (inactive) with OVCAR-8; 31 µM (inactive) with SF-268; > 100 µM (inactive) with SR; > 100 µM (inactive) in the experiment with U-251; > 100 µM (inactive) in the experiment with UACC-62; > 100 µM (inactive) with UO-31.
Regarding `COC1(OC)C=CC2C1C1C=CC2C1(OC)OC` (stereo not given), the GI50 is > 100 µM (inactive) with 786-0; > 100 µM (inactive) with DU-145; > 100 µM (inactive) in the experiment on HCC 2998; more than 100 µM with HCT-15; > 100 µM (inactive) with HT-29; > 100 µM (inactive) with M14. Also, the GI50 in the experiment with NCI-H226, in the experiment on NCI-H460, in the experiment with NCI-H522, in the experiment with OVCAR-3, with OVCAR-4 and in the experiment with OVCAR-5 was > 100 µM (inactive) each time. Also, the GI50 in the experiment with OVCAR-8, in the experiment on SF-268, with SR, with U-251, in the experiment on UACC-62 and in the experiment with UO-31 was > 100 µM (inactive) throughout.
As to `CN(Cc1c2ccccc2cc2ccccc12)S(=O)(=O)c1ccc(-c2c3nc(c(-c4ccc(S(=O)(=O)N(C)Cc5c6ccccc6cc6ccccc56)cc4)c4ccc([nH]4)c(-c4ccc(S(=O)(=O)N(C)Cc5c6ccccc6cc6ccccc56)cc4)c4nc(c(-c5ccc(S(=O)(=O)N(C)Cc6c7ccccc7cc7ccccc67)cc5)c5ccc2[nH]5)C=C4)C=C3)cc1`, the GI50 in the experiment on 786-0 is 53.1 µM (inactive); in the experiment with DU-145, > 100 µM (inactive); in the experiment on HCC 2998, > 100 µM (inactive); in the experiment on HCT-15 it was more than 100 µM; in the experiment on HL-60 it was > 100 µM (inactive); in the experiment on HT-29, > 100 µM (inactive). Further, the GI50 in the experiment with M14, with NCI-H460, in the experiment with NCI-H522, with OVCAR-3, in the experiment with OVCAR-4 and with OVCAR-5 was > 100 µM (inactive) each time. Further, the GI50 in the experiment on OVCAR-8 is > 100 µM (inactive); in the experiment with SF-268, > 100 µM (inactive); in the experiment with SR, > 100 µM (inactive); with U-251 it was 47.2 µM (inactive); with UACC-62 it was > 100 µM (inactive); in the experiment on UO-31, > 100 µM (inactive).
As for `CC(C)(C)OC(=O)n1c2ccccc2c2c(=O)nc(N3CCCCC3)sc21`, the GI50 in the experiment on 786-0 was > 100 µM (inactive); in the experiment with DU-145, > 100 µM (inactive); in the experiment on HCT-15 it was more than 100 µM; in the experiment on HL-60, > 100 µM (inactive); in the experiment with HT-29, > 100 µM (inactive); with M14, > 100 µM (inactive). For the same molecule, the GI50 in the experiment on NCI-H460 is 65.2 µM (inactive); in the experiment with NCI-H522 it was > 100 µM (inactive); in the experiment on OVCAR-3 it was > 100 µM (inactive); in the experiment on OVCAR-4, > 100 µM (inactive); with OVCAR-5, > 100 µM (inactive); in the experiment on OVCAR-8, > 100 µM (inactive). Moreover, the GI50 was 58.9 µM (inactive) in the experiment with SF-268; 90.4 µM (inactive) in the experiment with SR; > 100 µM (inactive) in the experiment on U-251; > 100 µM (inactive) in the experiment with UACC-62; 22.3 µM (inactive) in the experiment on UO-31.
As to `COc1cc2c(cc1C)NC(=O)/C2=C/c1c(Cl)n(-c2ccccc2)c2ccccc12`, the GI50 was 15.3 µM (inactive) in the experiment with 786-0; 31.8 µM (inactive) in the experiment with DU-145; 8.24 µM (inactive) in the experiment with HCC 2998; 11.8 µM with HCT-15; 3.38 µM (inactive) in the experiment on HL-60; 5.25 µM (inactive) in the experiment on HT-29. Also, the GI50 was 27.4 µM (inactive) with M14; 9.59 µM (inactive) in the experiment with NCI-H460; 11.4 µM (inactive) with NCI-H522; 7.91 µM (inactive) in the experiment with OVCAR-3; 29.5 µM (inactive) in the experiment on OVCAR-5; 23.4 µM (inactive) with OVCAR-8. The GI50 in the experiment on SF-268 was 20.6 µM (inactive); in the experiment on SR, 6.12 µM (inactive); with U-251, 16.1 µM (inactive); with UACC-62 it was 19.3 µM (inactive); in the experiment on UO-31 it was 49.2 µM (inactive).
As to `C=CCNC1=C2C[C@@H](C)C[C@@H](OC)[C@H](OC(=O)CCN)[C@H](C)/C=C(\C)[C@@H](OC(N)=O)[C@H](OC)/C=C\C=C(/C)C(=O)NC(=CC1=O)C2=O`, the GI50 in the experiment with 786-0 was 4.38 µM (inactive); in the experiment with DU-145, 1.21 µM (inactive); in the experiment with HCC 2998 it was 1.06 µM (active); with HCT-15 it was 9.57 µM; in the experiment on HL-60 it was 3.83 µM (inactive); in the experiment with HT-29, 0.409 µM (active). Moreover, the GI50 was 3.71 µM (inactive) in the experiment with M14; 2.77 µM (inactive) with NCI-H460; 5.3 µM (inactive) with NCI-H522; 2.45 µM (inactive) in the experiment on OVCAR-3; 8.93 µM (inactive) in the experiment with OVCAR-4; 10.8 µM (inactive) in the experiment on OVCAR-5. Also, the GI50 is 4.18 µM (inactive) with OVCAR-8; 9.57 µM (inactive) in the experiment on SF-268; 0.938 µM (active) in the experiment on SR; 5.09 µM (inactive) in the experiment with U-251; 2.9 µM (inactive) in the experiment on UACC-62; 11.2 µM (inactive) in the experiment with UO-31.
As to `CC1(C)CNC(=O)C2(CCCO2)CNC(C)(C)CNC(=O)C2(CCCO2)CN1` (stereo not given), the GI50 with 786-0 is > 10 µM (inactive); in the experiment on DU-145 it was > 10 µM (inactive); in the experiment on HCC 2998 it was > 10 µM (inactive); in the experiment with HCT-15, more than 10 µM; in the experiment on HL-60 it was > 10 µM (inactive); with HT-29, > 10 µM (inactive). Also, the GI50 in the experiment on M14, in the experiment with NCI-H522, in the experiment with OVCAR-3, in the experiment with OVCAR-4, with OVCAR-5 and in the experiment with OVCAR-8 was > 10 µM (inactive) throughout. The GI50 with SF-268, with SR, with U-251 and in the experiment with UACC-62 was > 10 µM (inactive) throughout.
As to `COc1ccc2c(c1)c1c(n2CCN2CCOCC2)-c2cccc(OC)c2CC1`, the GI50 with 786-0 was 30.4 µM (inactive); with DU-145 it was 62.4 µM (inactive); in the experiment with HCC 2998, 26.6 µM (inactive); in the experiment on HCT-15 it was 29.5 µM; in the experiment on HT-29, 17.1 µM (inactive); in the experiment with M14, 26.5 µM (inactive). The GI50 was 24.4 µM (inactive) in the experiment with NCI-H226; 38.9 µM (inactive) in the experiment on NCI-H460; 20.2 µM (inactive) in the experiment on NCI-H522; 52.7 µM (inactive) in the experiment on OVCAR-3; > 100 µM (inactive) in the experiment with OVCAR-4; 55.2 µM (inactive) in the experiment with OVCAR-5. Moreover, the GI50 is 46.8 µM (inactive) in the experiment with OVCAR-8; > 100 µM (inactive) in the experiment with SF-268; 10 µM (inactive) in the experiment with SR; 40.1 µM (inactive) in the experiment with U-251; 29.6 µM (inactive) with UACC-62; 18.6 µM (inactive) in the experiment with UO-31.
As for `NC(=S)NNC(=S)NC(=O)c1ccco1`, the GI50 with 786-0 was > 10 µM (inactive); in the experiment with DU-145, > 10 µM (inactive); in the experiment with HCC 2998, > 10 µM (inactive); in the experiment on HCT-15, more than 10 µM; with HL-60, > 10 µM (inactive); in the experiment with HT-29, > 10 µM (inactive). For the same molecule, the GI50 in the experiment with M14, with NCI-H226, in the experiment on NCI-H460, in the experiment on OVCAR-3, in the experiment with OVCAR-4 and with OVCAR-5 was > 10 µM (inactive) throughout. Moreover, the GI50 with OVCAR-8, with SF-268, with SR, in the experiment with U-251, in the experiment with UACC-62 and in the experiment on UO-31 was > 10 µM (inactive) in each case.
On to `CCc1nn(CN2CCOCC2)c(=S)n1/N=C/c1ccc(-c2ccc(Cl)cc2)o1`, for which the GI50 with 786-0 is > 100 µM (inactive); in the experiment with DU-145, > 100 µM (inactive); with HCT-15, more than 100 µM; in the experiment with HL-60, 81.1 µM (inactive); in the experiment with HT-29 it was > 100 µM (inactive); in the experiment with M14 it was > 100 µM (inactive). In addition, the GI50 in the experiment with NCI-H226, in the experiment on NCI-H460, in the experiment with NCI-H522, in the experiment with OVCAR-3, with OVCAR-4 and with OVCAR-5 was > 100 µM (inactive) in each case. Moreover, the GI50 in the experiment on OVCAR-8 is > 100 µM (inactive); in the experiment with SF-268 it was > 100 µM (inactive); in the experiment with SR, 80.5 µM (inactive); with U-251, > 100 µM (inactive); in the experiment on UO-31, > 100 µM (inactive).
